Measurements as given in ChEMBL document CHEMBL6103540, “Recent Progress and Future Perspectives on Anti-Hyperuricemic Agents” (J Med Chem, 2024).

Tests used:
[1] = target: T1, Xanthine dehydrogenase/oxidase (Homo sapiens, UniProt P47989); test: Inhibition of xanthine oxidase (unknown origin) by absorbance based assay
[2] = target: T1, Xanthine dehydrogenase/oxidase; test: Inhibition of XOR (unknown origin)
[3] = target: T2, Solute carrier family 22 member 12 (Homo sapiens, UniProt Q96S37); test: Inhibition of URAT1 (unknown origin) expressed in human HK-2 cells at 10 uM relative to control; format: cell-based; settings: HK-2, human
T2 sequence (Q96S37 whole entry): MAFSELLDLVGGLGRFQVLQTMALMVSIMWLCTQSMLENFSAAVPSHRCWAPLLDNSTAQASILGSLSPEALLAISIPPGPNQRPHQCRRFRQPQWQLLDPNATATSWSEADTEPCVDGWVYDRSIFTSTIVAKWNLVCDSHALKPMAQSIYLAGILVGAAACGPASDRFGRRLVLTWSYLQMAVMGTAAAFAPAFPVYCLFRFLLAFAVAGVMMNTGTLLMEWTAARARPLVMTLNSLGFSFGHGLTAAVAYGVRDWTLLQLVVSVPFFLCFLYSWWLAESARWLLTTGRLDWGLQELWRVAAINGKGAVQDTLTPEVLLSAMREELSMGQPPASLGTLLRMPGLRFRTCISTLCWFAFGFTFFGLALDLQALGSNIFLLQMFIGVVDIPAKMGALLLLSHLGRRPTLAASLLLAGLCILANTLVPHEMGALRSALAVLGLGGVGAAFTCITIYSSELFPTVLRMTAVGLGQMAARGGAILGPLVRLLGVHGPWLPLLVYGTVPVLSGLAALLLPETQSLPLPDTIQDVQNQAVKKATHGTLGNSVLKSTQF

[4] = target: T2, Solute carrier family 22 member 12; test: Inhibition of human URAT1 expressed in HEK293T cells by assessed as 14C-uric acid uptake preincubated for 5 mins followed by 14C-uric acid addition and measured after 10 mins by liquid scintillation counting method; format: cell-based
[5] = target: T2, Solute carrier family 22 member 12; test: Inhibition of URAT1 (unknown origin)
[6] = target: T1, Xanthine dehydrogenase/oxidase; test: Inhibition of Xanthine oxidase (unknown origin)
[7] = target: T2, Solute carrier family 22 member 12; test: Inhibition of human URAT1 stably expressed in HEK293 cells by measuring 14C-uric acid uptake pre-incubated for 15 mins followed by 14C-uric acid addition and measured for 30 mins by liquid scintillation counter analysis; format: cell-based
[8] = target: T3, Solute carrier family 2, facilitated glucose transporter member 9 (Homo sapiens, UniProt Q9NRM0); test: Inhibition of GLUT9 (unknown origin)
T3 sequence (Q9NRM0 whole entry): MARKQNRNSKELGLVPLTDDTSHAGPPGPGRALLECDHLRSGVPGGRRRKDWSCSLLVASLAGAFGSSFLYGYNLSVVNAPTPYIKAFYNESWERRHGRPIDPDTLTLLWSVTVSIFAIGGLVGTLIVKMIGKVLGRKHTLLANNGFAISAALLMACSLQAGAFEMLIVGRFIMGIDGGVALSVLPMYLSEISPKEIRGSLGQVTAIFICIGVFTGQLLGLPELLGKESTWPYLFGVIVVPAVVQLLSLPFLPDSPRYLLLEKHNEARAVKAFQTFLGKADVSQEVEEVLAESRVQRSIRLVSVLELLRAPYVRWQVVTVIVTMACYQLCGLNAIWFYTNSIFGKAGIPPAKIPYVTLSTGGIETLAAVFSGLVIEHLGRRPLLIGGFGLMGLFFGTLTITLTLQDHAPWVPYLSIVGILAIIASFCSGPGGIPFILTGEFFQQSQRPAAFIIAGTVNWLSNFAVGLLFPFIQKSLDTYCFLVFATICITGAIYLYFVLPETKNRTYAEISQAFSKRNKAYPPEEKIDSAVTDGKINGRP

[9] = target: T2, Solute carrier family 22 member 12; test: Inhibition of human URAT1 stably expressed in HEK293T cells; format: cell-based

T1 sequence (P47989 whole entry): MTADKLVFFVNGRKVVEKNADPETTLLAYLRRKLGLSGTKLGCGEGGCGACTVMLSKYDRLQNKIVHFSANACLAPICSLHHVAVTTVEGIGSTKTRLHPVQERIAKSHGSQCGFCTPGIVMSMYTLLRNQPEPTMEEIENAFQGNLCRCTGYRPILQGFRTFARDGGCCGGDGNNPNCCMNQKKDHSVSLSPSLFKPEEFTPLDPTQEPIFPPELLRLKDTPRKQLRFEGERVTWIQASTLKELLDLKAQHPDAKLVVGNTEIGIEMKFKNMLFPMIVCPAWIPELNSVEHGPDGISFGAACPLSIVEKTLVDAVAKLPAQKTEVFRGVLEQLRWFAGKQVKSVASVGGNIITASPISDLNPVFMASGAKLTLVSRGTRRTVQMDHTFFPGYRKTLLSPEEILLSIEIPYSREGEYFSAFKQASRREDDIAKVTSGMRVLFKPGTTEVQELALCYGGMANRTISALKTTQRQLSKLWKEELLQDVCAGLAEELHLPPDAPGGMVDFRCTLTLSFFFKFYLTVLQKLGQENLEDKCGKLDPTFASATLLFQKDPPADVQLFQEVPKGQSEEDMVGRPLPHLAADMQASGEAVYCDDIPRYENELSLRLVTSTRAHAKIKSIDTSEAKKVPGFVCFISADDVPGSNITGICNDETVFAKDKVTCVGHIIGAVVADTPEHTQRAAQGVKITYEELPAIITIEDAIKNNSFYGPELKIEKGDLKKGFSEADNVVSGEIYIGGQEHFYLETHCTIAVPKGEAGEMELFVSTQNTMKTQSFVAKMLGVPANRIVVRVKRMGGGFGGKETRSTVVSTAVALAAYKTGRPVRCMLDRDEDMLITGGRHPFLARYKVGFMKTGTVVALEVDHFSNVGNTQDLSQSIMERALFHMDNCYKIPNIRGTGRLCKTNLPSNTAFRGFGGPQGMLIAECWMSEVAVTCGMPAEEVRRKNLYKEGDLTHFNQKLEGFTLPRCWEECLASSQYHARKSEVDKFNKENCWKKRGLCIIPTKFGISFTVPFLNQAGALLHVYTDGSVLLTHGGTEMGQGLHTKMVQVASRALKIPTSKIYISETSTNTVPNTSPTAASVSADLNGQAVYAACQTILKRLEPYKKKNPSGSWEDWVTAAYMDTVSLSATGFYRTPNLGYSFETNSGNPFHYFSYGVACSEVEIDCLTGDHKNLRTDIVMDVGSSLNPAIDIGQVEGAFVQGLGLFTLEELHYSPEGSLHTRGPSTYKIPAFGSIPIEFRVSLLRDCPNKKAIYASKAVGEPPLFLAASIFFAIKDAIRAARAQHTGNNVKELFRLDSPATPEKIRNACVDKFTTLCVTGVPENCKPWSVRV

## COc1ccc(C2CC(=O)c3c(O)cc(O)cc3O2)cc1O (configuration not stated)
[1]
  IC50: 840 nM

## N#Cc1cc(-c2n[nH]c(-c3ccncc3)n2)ccn1 [TOPIROXOSTAT]
[2]
  IC50: 15 nM

## COc1cc2c3c(c1OS(=O)(=O)c1ccc(F)cc1)-c1ccccc1C[C@H]3N(C)CC2
[3]
  inhibition at 10 µM: 61%

## O=C(O)C1(Sc2ccccc2N2CCOc3ccc(Br)cc32)CCC1
[4]
  IC50: 1690 nM

## O/N=C(\Cc1ccc(Br)cc1)c1ccc(O)cc1O
[5]
  IC50: 145 nM
[6]
  IC50: 3330 nM

## Cc1nc(-c2ccc(OCC(C)C)c(C#N)c2)sc1C(=O)O [FEBUXOSTAT]
[6]
  IC50: 10 nM

## CCCc1ccc(Cn2c(Br)nnc2SCC(=O)O)c2ccccc12
[7]
  IC50: 92 nM

## O=c1c2cc(O)c(O)cc2oc2cc(OCc3ccccc3)cc(O)c12
[6]
  IC50: 3300 nM

## O=C(/C=C/c1ccc(O)c2oc(-c3ccc(O)c(O)c3)cc12)O[C@H](Cc1ccc(O)c(O)c1)C(=O)O
[2]
  IC50: 9700 nM

## O=C(O)C1(Sc2ccnc3ccc(Br)cc23)CCC1 [SHR-4640]
[5]
  IC50: 53 nM

## CC(C)=CCc1c(O)ccc2c1O[C@H](c1ccc(O)cc1)CC2=O [ISOBAVACHIN]
[5]
  IC50: 240 nM
[6]
  IC50: 14400 nM
[8]
  IC50: 1120 nM

## N#Cc1cc(-n2cnc(C(=O)O)c2)ccc1N1CCCCCC1
[9]
  IC50: 10800 nM

## CCn1c(=O)sc2cc(-c3ccc(C(=O)O)c(O)c3)ccc21
[5]
  IC50: 30200 nM
[6]
  IC50: 12 nM
